Measurements from PMC12591484 (PLOS One, 2025).
Marks after values point to notes of the source that are not given here.

What was measured:
[1] = system: α1β3γ2L GABAA receptors, substituted cysteine at α1L232 (α1– M1); parameters: key: +: SCAMP is Substituted Cysteine Modification and Protection and is positive when adding anesthetic to cysteine modifier significantly reduces persistent post-exposure effects due to covalent modification; -: Negative results are indicated by “–“ symbols; settings: previously reported; cited from earlier work
α1β2N265Cγ2L receptors = settings: at the tested concentration; etomidate binds extremely weakly; cited from earlier work
[2] = biological target: T1, α1β3γ2S301C GABAA receptors (Homo sapiens, UniProt P14867+P18507+P28472, S340C); test: Drug protection from pCMBS modification (SCAMP); type: cell-based; parameters: key: +: SCAMP is Substituted Cysteine Modification and Protection and is positive when adding anesthetic to cysteine modifier significantly reduces persistent post-exposure effects due to covalent modification; -: Negative results are indicated by “–“ symbols; settings: results of this study (*)
T1 construct: expressed in transfected cells; host or cells: Xenopus oocytes injected with capped mRNAs mixed 1α:1β:5γ
T1 sequence (P14867 28-456): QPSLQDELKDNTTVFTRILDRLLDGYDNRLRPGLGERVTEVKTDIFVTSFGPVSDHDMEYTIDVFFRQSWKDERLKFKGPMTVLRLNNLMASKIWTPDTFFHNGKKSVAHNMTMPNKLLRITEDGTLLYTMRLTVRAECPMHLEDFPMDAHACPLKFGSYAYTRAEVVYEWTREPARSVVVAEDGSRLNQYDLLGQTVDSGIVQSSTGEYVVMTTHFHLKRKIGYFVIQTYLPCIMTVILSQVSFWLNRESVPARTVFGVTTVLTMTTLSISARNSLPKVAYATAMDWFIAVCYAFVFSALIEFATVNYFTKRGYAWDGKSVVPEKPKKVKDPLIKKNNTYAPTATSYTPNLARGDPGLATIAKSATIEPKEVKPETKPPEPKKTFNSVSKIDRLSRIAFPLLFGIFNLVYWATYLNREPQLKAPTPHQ
T1 sequence (P28472 26-473): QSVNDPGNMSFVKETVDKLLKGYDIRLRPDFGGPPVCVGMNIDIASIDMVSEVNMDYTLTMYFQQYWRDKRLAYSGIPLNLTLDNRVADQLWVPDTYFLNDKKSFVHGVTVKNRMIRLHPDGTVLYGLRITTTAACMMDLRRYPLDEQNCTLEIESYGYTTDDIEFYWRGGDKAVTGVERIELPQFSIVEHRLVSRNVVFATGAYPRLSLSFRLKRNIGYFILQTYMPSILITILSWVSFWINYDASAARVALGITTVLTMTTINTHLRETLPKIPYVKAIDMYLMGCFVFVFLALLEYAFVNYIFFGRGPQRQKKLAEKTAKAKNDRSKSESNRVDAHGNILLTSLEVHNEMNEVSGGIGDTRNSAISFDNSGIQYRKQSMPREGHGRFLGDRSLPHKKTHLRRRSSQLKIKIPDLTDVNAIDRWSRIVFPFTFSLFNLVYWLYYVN
T1 sequence (P18507 40-475 S340C): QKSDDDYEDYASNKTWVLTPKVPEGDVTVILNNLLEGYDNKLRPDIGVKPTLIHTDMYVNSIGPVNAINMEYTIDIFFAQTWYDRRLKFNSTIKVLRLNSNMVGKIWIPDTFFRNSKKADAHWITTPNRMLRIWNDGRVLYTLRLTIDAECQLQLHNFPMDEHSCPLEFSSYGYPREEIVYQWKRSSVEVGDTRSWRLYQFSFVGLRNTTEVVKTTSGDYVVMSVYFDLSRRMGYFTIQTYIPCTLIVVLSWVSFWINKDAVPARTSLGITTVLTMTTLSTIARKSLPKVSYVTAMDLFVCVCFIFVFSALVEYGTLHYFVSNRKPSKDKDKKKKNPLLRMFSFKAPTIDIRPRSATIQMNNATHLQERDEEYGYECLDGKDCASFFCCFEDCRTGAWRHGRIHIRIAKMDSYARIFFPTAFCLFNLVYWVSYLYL
Description: Experiments were performed in ND-96 buffer at room temperature (20–22°C). Oocytes were placed in a low-volume (30µl) flow chamber and impaled with borosilicate microelectrodes filled with 3M KCl (resistance 0.5–3 MΩ) and voltage-clamped at −50 mV (model OC-725C; Warner Instruments, Hamden, CT, USA). Superfusate solutions in ND-96 were delivered at 2 ml/min from glass syringe reservoirs via computer-controlled valves (VC-8; Warner Instruments), a micro-manifold (ALA-VM8; ALA Scientific Instruments, Farmingdale, NY, USA), and PTFE tubing. Currents were digitized at 200 Hz on a computer running ClampEx v8.0 software (Molecular Devices, San Jose, CA, USA). Digitized traces were filtered with a 10-Hz low-pass Bessel function, leak corrected and analyzed for peak amplitude off-line using Clampfit v8 software (Molecular Devices).
Drug protection from pCMBS modification was assessed under pCMBS exposure conditions that produced approximately half of the maximal modification ratio for each mutant receptor, and a least a value of 3. This approach balanced the magnitude of functional modification signals (smaller with less pCMBS exposure) against the challenge of using a reversibly bound ligand to competitively block an irreversible covalent cysteine-modifying reaction. […] Each oocyte was used in a single SCAMP experiment. […] Etomidate was used as a positive control for anesthetic protection in α1M236C and β3M286C mutants and as a negative control in α1S270C, α1A291C, β3L231C, γ2S301C, γ2I242C, and γ2L246C mutants. R-mTFD-MPAB was used as a positive control in α1S270C, α1A291C, β3L231C, and γ2LS301C mutants and as a negative control in α1M236C and β3M286C mutants. For each cysteine mutant and protective drug combination, five oocytes were studied.
Non-linear least squares fits and statistical analyses were performed in Prism 10.4.0. (GraphPad Software, San Diego, CA, USA). […] Protection (steric inhibition of pCMBS modification) was inferred when anesthetics produced significant reductions in modification ratios relative to control (no anesthetic) values. The statistical significance threshold was p < 0.05.

Row | Compound | SCAMP result, α1– (M1) L232 [1] | SCAMP protection at β N265C (α1β2N265Cγ2L receptors) | SCAMP result, γ2+ (M2, M3) S301 [2]
1 | CCOC(=O)c1cncn1[C@H](C)c1ccccc1 [etomidate, R-etomidate] | +^[9] | fails to protect | 
2 | C=CCC1(c2cccc(C3(C(F)(F)F)N=N3)c2)C(=O)NC(=O)N(C)C1=O (stereo not drawn) [R-mTFD-MPAB, R-5-allyl-1-methyl-5-(m-trifluoromethyl-diazirynylphenyl) barbituric acid] |  |  | +*
